Reference: patent US7781580B2, “Stilbene derivatives as new cancer therapeutic agents” (Virginia Commonwealth University, priority 2007, dated 2010)

What was measured:
[1] = system: c-kit positive marrow progenitor cells; assay: bone marrow c-kit-positive progenitor cells: cell cycle and colony forming assay; format: cell-based
Description: FIG. 16. (a) Effect of stilbenes in normal bone marrow progenitor cells. c-kit-positive bone marrow mononuclear cells were isolated for incubation with stilbenes 4a or 4c at 0.1 or 0.5 […] for 16 hours. Cells were harvested for fixation and PI staining. Cell cycle analysis and quantification of the subG0/1 population were analyzed by FACScan flow cytometry. The percentages of the apoptotic population were indicated. Shown are the representatives of two independent experiments. (b) Effect of stilbenes in HL60 cells as positive control. HL60 cells were treated with stilbenes 4a or 4c in the same medium as the positive control. (c) Colony forming assay of the stilbene-treated c-kit-positive cells. A fraction of the cells in (a) were diluted and plated on methylcellulose medium at various densities. Cells were incubated for 14 days and the grossly visible colonies were counted. […] Isolated bone marrow c-kit-positive progenitor cells were incubated with DMSO or stilbenes 4a or 4c at 0.1 or 0.5 μM for 16 hours and injected into tail veins of CD45 congenic mice lethally irradiated with 1200 cGy. Mice were monitored for survival and lineage-specific donor engraftment by flow cytometry analysis of peripheral blood. The percentage of donor cells in T, B, and granulocytic series of the recipients were studied at 7 and 14 weeks after transplantation. Stilbene treated c-Kit progenitor cells had the same percentage as the DMSO treated control in all series.
Mouse bone marrow was harvested from femur and tibia of […], subjected to red blood cell lysis, and labeled with anti-c-kit (3C11; CALTAG Laboratories, Burlingame, Calif.) and streptavidin-conjugated microbeads for MACS separation (Miltenyi Biotech, Auburn, Calif.). The c-kit positive marrow progenitor cells were incubated in Iscove's Modified Eagle's Media supplemented with 30% fetal bovine serum, erythropoietin, stem cell factor and interleukin-3 with or without stilbenes 4a or 4c. The ability of long-term proliferation of the c-kit-positive cells was evaluated with colony forming assay. Cells were first treated with DMSO, stilbenes 4a or 4c for 5 h and a fraction of the cells (4000 cells) were plated in the same enriched culture media with methylcellulose for colony forming assays. The grossly visible colonies were counted after 14 days of incubation.

[2] = system: Hep3B hepatocellular carcinoma cells (xenograft); assay: DCE-MRI tumor vascular perfusion, Hep3B xenograft; format: in vivo, mice; details: 50 mg/kg intraperitoneally
Description: Mice with established tumor xenografts were used for this study. […] Tumor and kidney, as the representative normal organ, were marked by arrowheads. […] Mice were then left overnight to wash out gadolinium and treated with stilbene 4a at 50 mg/kg intraperitoneally. 4 hours after stilbene injection, mice were imaged with the same protocol. […] Only a small amount of residual gadolinium was still in the tissues.
In order to establish that stilbene suppresses tumor perfusion by damaging tumor endothelial cells, we first incubated human vascular endothelial cells with various concentrations of stilbenes in vitro. After 24 hours of incubation, cells were then fixed with 2% paraformaldehyde and stained with anti-tubulin antibody to examine the tubulin disruption and with DAPI to analyze nuclear fragmentation. Dynamic-contrast enhanced magnetic resonance imaging (MRI) scanning was used to investigate tumor perfusion in vivo. Immunodeficient nude mice were first injected with Hep3B hepatocellular carcinoma cells subcutaneously. […] A region of interest (ROI) was chosen from the scan and the MRI signal in the ROI was plotted against time and the initial steepest slope of the curve was calculated to represent the maximal perfusion of the ROI. […] The perfusion rate of the muscle region was normalized and set at 100% and the rate of perfusion in tumor was calculated versus the muscle. […]

[3] = system: SKOV3 ovarian cancer cells; assay: Alamar Blue cell growth inhibition, SKOV3; format: cell-based
Summary of the method: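 SKOV3 cells at 50% confluence were treated 48 h with compounds, against 0.1% DMSO vehicle controls. Growth was read by Alamar Blue absorbance at 570 and 600 nm, with % growth inhibition from the manufacturer's extinction-coefficient formula. Each concentration was run in triplicate.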

COc1cc(/C=C\c2ccc(OC)c(N)c2)cc(OC)c1 [4a, (Z)-5-[2-(3,5-Dimethoxy-phenyl)-vinyl]-2-methoxy-phenylamine]
toxicity to normal bone marrow progenitor cells versus leukemia cells [1]: much less toxic to normal bone marrow progenitor cells
cell cycle of marrow progenitor cells at 0.1 μM ([1]; 0.1 μM, 16 hours): increased the subG0/1 and G2 population slightly
cell cycle of marrow progenitor cells at 0.5 μM ([1]; 0.5 μM, 16 hours): increased the subG0/1 and G2 population slightly
normal vascular perfusion [2]: without compromising normal vascular perfusion
tumor vascular perfusion (gadolinium enhancement) ([2]; 4 hours after injection): significantly less gadolinium enhancement
IC50 ([3]; Homo sapiens, SK-OV-3): 50 to 100 nM
effective / active concentration ([3]; SKOV3, 48 hours): 0.1 µM
